Source: publication PMC4038709 (Bioorganic & medicinal chemistry, 2014)

Biological target: T1, SET7 (Homo sapiens, UniProt Q8WTS6)
T1 sequence (Q8WTS6 52-366): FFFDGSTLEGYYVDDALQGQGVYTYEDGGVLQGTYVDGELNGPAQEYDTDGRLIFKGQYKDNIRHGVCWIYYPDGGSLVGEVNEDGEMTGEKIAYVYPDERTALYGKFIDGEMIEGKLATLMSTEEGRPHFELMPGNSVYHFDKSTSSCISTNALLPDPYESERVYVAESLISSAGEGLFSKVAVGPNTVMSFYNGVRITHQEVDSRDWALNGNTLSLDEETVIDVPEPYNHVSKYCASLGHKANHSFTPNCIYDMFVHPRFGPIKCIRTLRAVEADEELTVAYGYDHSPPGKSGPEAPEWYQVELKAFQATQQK
Experiment: SET7 ELISA methylation assay
Format: biochemical
Settings: comparison with parent analog, ELISA 40 µM (Fig. 3)

Structure (SMILES)	relative potency against SET7 (SAR, in words)
O=C(O)CCCSCc1cccc(-n2ccc3cc(Br)ccc32)c1 [Compound 10, 4-(3-(5-bromo-1H-indol-1-yl)benzylthio)butanoic acid]	more potent inhibitors of SET7 than 7
O=C(O)c1cccc(SCc2cccc(-n3ccc4cc(Br)ccc43)c2)c1 [Compound 11, 3-(3-(5-bromo-1H-indol-1-yl)benzylthio)benzoic acid]	more potent inhibitors of SET7 than 7
O=C(O)c1cccc(SCc2cccc(-n3ccc4c(Br)cccc43)c2)c1 [Compound 12, 3-(3-(4-bromo-1H-indol-1-yl)benzylthio)benzoic acid]	increased potency
O=C(O)c1cccc(SCc2cccc(-n3ccc4c(-c5ccccc5)cccc43)c2)c1 [Compound 13, 3-(3-(4-phenyl-1H-indol-1-yl)benzylthio)benzoic acid]	even more effective
O=C(O)c1ccc(-c2cccc3c2ccn3-c2cccc(CNc3cccc(C(=O)O)c3)c2)cc1 [Compound 15, 3-(3-(4-(4-carboxyphenyl)-1H-indol-1-yl)benzylamino)benzoic acid]	greatly suppressed activity

Same assay, conditions: read-out: inhibition of SET7

Structure (SMILES)	inhibition at 40 µM
O=C(O)c1cccc(SCc2cccc(-n3ccc4c(-c5ccccc5)cccc43)c2)c1 [Compound 13, 3-(3-(4-phenyl-1H-indol-1-yl)benzylthio)benzoic acid]	50 to 60%
O=C(O)c1cccc(NCc2cccc(-n3ccc4c(-c5ccccc5)cccc43)c2)c1 [Compound 14, 3-(3-(4-phenyl-1H-indol-1-yl)benzylamino)benzoic acid]	50 to 60%

Biological target: T1, SET7
Experiment: SET7 scintillation proximity assay
Format: biochemical
Settings: SPA, 50 µM and 15 µM inhibitor, comparison with 19 (Fig. 4)

Structure (SMILES)	relative potency against SET7 (SAR, in words)
O=C(O)c1cccc(CNc2cccc(-n3ccc4c(-c5ccc(C(F)(F)F)cc5)ncnc43)c2)c1 [Compound 25]	reduced inhibitor potency
O=C(O)c1cccc(NCc2ccc(-n3ccc4c(-c5ccc(C(F)(F)F)cc5)ncnc43)s2)c1 [Compound 26]	reduced inhibitor potency
